Tested on: Magel2-null mice
Assay: Effect of HU-671 on preventing bone loss in female Magel2 mice (μCT of distal femoral metaphysis)
Assay type: in vivo
Settings: 0.5 mg/kg IP daily for 6 weeks
Description: The effect of HU-671 on preventing bone loss in female Magel2 mice and their littermates as controls was tested. Forty (40) 6-week old female mice were treated daily with HU-671 (0.5 mg/kg, IP) for a period of 6 weeks. Twenty-four (24) hours following the last administration of HU-671, a complete structural analysis of the trabecular and cortical bone in the distal femoral metaphysis was performed. The femora were fixed in phosphate buffered formalin for 48 hours and further kept at 70% ethanol. They were examined by a micro computed tomography (μCT) system. Scans were performed at 20-μm resolution in all three spatial dimensions. The mineralized tissues were differentially segmented by a global thresholding procedure.

## CCCCCCCC/C=C\CCCCCCCC(=O)NC(C)(CO)C(=O)O (racemic) [HU-671, N-oleoyl α-methyl-DL-serine]
  Tb.N (trabecular number): increasing
  Tb.Th (trabecular thickness): enhancing
  bone volume density (BV/TV): stimulated increase
  connectivity density in the trabecular bone (Conn.D): significantly rescued
  cortical parameters: improved
  reduction in Cort.Th (cortical thickness): completely prevent
Vs vehicle-treated
  trabecular bone loss: completely prevented

— patent US11058652B2, “Methods for treatment of Prader-Willi syndrome” (Yissum Research Development Company of the Hebrew …, priority 2016, dated 2021)
